Data taken from ChEMBL document CHEMBL1201862, “PubChem BioAssay data set” (2004).
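Interpolation was linear, between the two tested concentrations surrounding the appropriate level; five concentrations were tested over 48 hours in 96-well plates. GI50 marks 50% less growth.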 The source made the active and inactive calls. Cut-off read from the data, not from the text of the source: active = GI50 up to about 1.1 µM and inactive = higher.

What was measured:
Test in all cases: NCI anticancer screen, dose series, 48 h
[1] = tested on: 786-0
[2] = tested on: A498
[3] = tested on: A549
[4] = tested on: ACHN
[5] = tested on: CAKI-1
[6] = tested on: CCRF-CEM
[7] = tested on: COLO 205
[8] = tested on: DLD-1
[9] = tested on: DMS-114
[10] = tested on: DMS-273
[11] = tested on: HCC 2998
[12] = tested on: HCT-116
[13] = tested on: HCT-15
[14] = tested on: HL-60
[15] = tested on: HOP-18
[16] = tested on: HOP-62
[17] = tested on: HOP-92
[18] = tested on: HT-29
[19] = tested on: IGROV-1
[20] = tested on: K562
[21] = tested on: KM-20L2
[22] = tested on: KM12
[23] = tested on: LOX IMVI
[24] = tested on: LXFL 529
[25] = tested on: M14
[26] = tested on: M19-MEL
[27] = tested on: MOLT-4
[28] = tested on: Malme-3M
[29] = tested on: NCI-H226
[30] = tested on: NCI-H23
[31] = tested on: NCI-H460
[32] = tested on: NCI-H522
[33] = tested on: OVCAR-3
[34] = tested on: OVCAR-4
[35] = tested on: OVCAR-5
[36] = tested on: OVCAR-8
[37] = tested on: RPMI-8226
[38] = tested on: RXF 393
[39] = tested on: RXF 631
[40] = tested on: SF-268
[41] = tested on: SF-295
[42] = tested on: SF-539
[43] = tested on: SK-MEL-28
[44] = tested on: SK-MEL-5
[45] = tested on: SK-OV-3
[46] = tested on: SN12C
[47] = tested on: SNB-75
[48] = tested on: SNB-78
[49] = tested on: SR
[50] = tested on: SW-620
[51] = tested on: TK-10
[52] = tested on: U-251
[53] = tested on: UACC-257
[54] = tested on: UACC-62
[55] = tested on: UO-31
[56] = tested on: XF498
[57] = tested on: EKVX
[58] = tested on: SK-MEL-2
[59] = tested on: SNB-19

Measured: GI50

O=C1CC2C(=O)N(Cc3ccccc3)C1C(S(=O)(=O)c1ccccc1)C2S(=O)(=O)c1ccccc1 (stereo unspecified)
active: [5] 0.604 µM | [6] 1.11 µM | [32] 0.363 µM | [50] 0.528 µM
1.32 µM: [13]
inactive: [1] 2.93 µM | [2] 18.3 µM | [3] 19.1 µM | [4] 1.67 µM | [7] 1.69 µM | [8] 1.59 µM | [9] 1.29 µM | [10] 5.46 µM | [11] 8.02 µM | [12] 4.68 µM | [14] 1.62 µM | [15] 3.78 µM | [16] 22.1 µM | [17] 2.15 µM | [18] 2.17 µM | [19] 20.9 µM | [20] 2.09 µM | [21] 2.4 µM | [22] 13.7 µM | [23] 1.68 µM | [24] 1.31 µM | [25] 1.92 µM | [26] 2.06 µM | [27] 2.55 µM | [28] 2 µM | [29] 13.3 µM | [30] 3.25 µM | [31] 17.7 µM | [33] 1.78 µM | [34] 2.08 µM | [35] 18 µM | [36] 1.94 µM | [37] 3.08 µM | [38] 1.83 µM | [39] 12.5 µM | [40] 3.44 µM | [41] 22.6 µM | [42] 2.05 µM | [43] 1.9 µM | [44] 15.7 µM | [45] 17.6 µM | [46] 1.68 µM | [47] 7.28 µM | [48] 11.2 µM | [49] 2.48 µM | [51] 1.78 µM | [52] 2.92 µM | [53] 1.61 µM | [54] 1.84 µM | [55] 10.7 µM | [56] 1.86 µM

CCSc1nnc(CSc2nc(-c3ccccc3)c(-c3ccccc3)[nH]2)n1-c1ccccc1
inactive: [1] 19.8 µM | [2] 18.5 µM | [3] 29.9 µM | [4] 17.2 µM | [5] 23.7 µM | [6] 17 µM | [7] 16.1 µM | [8] 20.2 µM | [9] 19 µM | [10] 23.4 µM | [57] 24.4 µM | [11] 20.8 µM | [12] 18.2 µM | [14] 25.8 µM | [15] 13.8 µM | [16] 20.2 µM | [17] 20.8 µM | [18] 19.4 µM | [19] 20.9 µM | [20] 25.3 µM | [21] 17.9 µM | [22] 16.9 µM | [23] 22.9 µM | [24] 27.4 µM | [25] 19 µM | [26] 18.6 µM | [27] 15.2 µM | [28] 20 µM | [29] 14.1 µM | [30] 21 µM | [31] 18.9 µM | [32] 16.4 µM | [33] 15.9 µM | [35] 14.5 µM | [36] 21.6 µM | [37] 21.5 µM | [38] 25.8 µM | [39] 19.6 µM | [40] 23.3 µM | [41] 23.1 µM | [43] 21 µM | [58] 21.7 µM | [44] 17.1 µM | [45] 26.4 µM | [46] 15.8 µM | [59] 16.1 µM | [47] 18.4 µM | [48] 41.1 µM | [49] 24.3 µM | [50] 16.6 µM | [51] 22.6 µM | [52] 17.9 µM | [53] 18.6 µM | [54] 15.3 µM | [55] 17.1 µM | [56] 20.3 µM
18.5 µM: [13]

O=C(CC1=Nc2nnc(CCCCCCCc3nnc4n3C(=O)C(CC(=O)c3ccc5ccccc5c3)=N4)n2C1=O)c1ccc2ccccc2c1
inactive: [1] > 100 µM | [3] > 100 µM | [4] > 100 µM | [5] > 100 µM | [6] > 100 µM | [7] > 100 µM | [8] > 100 µM | [9] > 100 µM | [10] > 100 µM | [57] 63.5 µM | [11] > 100 µM | [12] > 100 µM | [14] > 100 µM | [15] > 100 µM | [16] > 100 µM | [17] > 100 µM | [18] > 100 µM | [19] 66.2 µM | [20] > 100 µM | [21] > 100 µM | [22] > 100 µM | [23] > 100 µM | [24] > 100 µM | [25] > 100 µM | [26] > 100 µM | [27] > 100 µM | [28] > 100 µM | [29] > 100 µM | [30] > 100 µM | [31] > 100 µM | [32] > 100 µM | [33] > 100 µM | [34] > 100 µM | [35] > 100 µM | [36] > 100 µM | [37] > 100 µM | [38] > 100 µM | [39] 51.9 µM | [40] > 100 µM | [41] > 100 µM | [42] > 100 µM | [43] > 100 µM | [58] > 100 µM | [45] > 100 µM | [46] > 100 µM | [59] > 100 µM | [47] > 100 µM | [48] > 100 µM | [49] > 100 µM | [50] > 100 µM | [51] > 100 µM | [52] > 100 µM | [53] > 100 µM | [54] > 100 µM | [55] > 100 µM | [56] > 100 µM
active: [2] < 0.01 µM
> 100 µM: [13]
